This passage reports Activity results from ChEMBL document CHEMBL1150453, “Novel catalytic activity of immobilized spores under reduced water activity” (1997).

Holding throughout (format): functional
Assay [1] has as its system Aspergillus ochraceus. In words: Compound was tested for transformation of progesterone by Dehydrated immobilized spores of Aspergillus orchraceus TS using the method n-Butylacetate.
Assay [2] concerns Aspergillus ochraceus. In words: Compound was tested for transformation of progesterone by Dehydrated immobilized spores of Aspergillus orchraceus TS using the method Freeze-thaw.
Assay [3] has as its system Aspergillus ochraceus. In words: Compound was tested for transformation of progesterone by Dehydrated immobilized spores of Aspergillus orchraceus TS using the method Ethylacetate.
Assay [4] has as its system Aspergillus ochraceus. In words: Compound was tested for transformation of progesterone by Dehydrated immobilized spores of Aspergillus orchraceus TS using the method Amylacetate.
Assay [5] deals with Aspergillus ochraceus. In words: Compound was tested for transformation of progesterone by immobilized spores of Aspergillus orchraceus TS.

On to `C[C@]12CCC(=O)C[C@@H]1CC[C@@H]1[C@@H]2CC[C@]2(C)[C@@H](O)CC[C@@H]12` [STANOLONE], for which the Activity with Aspergillus ochraceus [1] was 2.7 uM (g of spores)-1; with Aspergillus ochraceus [2], 5.8 uM (g of spores)-1; in the assay on Aspergillus ochraceus [3], 4.2 uM (g of spores)-1; with Aspergillus ochraceus [4], 2.9 uM (g of spores)-1.
On the same counts, the results for `C[C@]12C=CC(=O)C=C1CC[C@@H]1[C@@H]2CC[C@]2(C)C(=O)CC[C@@H]12` [ANDROSTENEDONE] are 15.8 uM (g of spores)-1, 14.4 uM (g of spores)-1, 22.2 uM (g of spores)-1 and 16.1 uM (g of spores)-1.
On the same counts, the results for `C[C@]12CCC(=O)C=C1CC[C@@H]1[C@@H]2CC[C@]2(C)C(=O)CC[C@@H]12` [ANDROSTENEDIONE] are 40.4 uM (g of spores)-1, 14.7 uM (g of spores)-1, 58.7 uM (g of spores)-1 and 42.6 uM (g of spores)-1.
For the compound `CC(=O)[C@@]1(O)CC[C@H]2[C@@H]3CCC4=CC(=O)CC[C@]4(C)[C@H]3CC[C@@]21C` [HYDROXYPROGESTERONE], the Activity is on record as 12.2 uM (g of spores)-1 in the assay with Aspergillus ochraceus [1], 20.8 uM (g of spores)-1 in the assay with Aspergillus ochraceus [3] and 13.8 uM (g of spores)-1 in the assay on Aspergillus ochraceus [4].
On to `CC(=O)OC1CCC2C3CCC4=CC(=O)CCC4(C)C3CCC12C` (stereo unspecified), for which, in the assay on Aspergillus ochraceus [2], the Activity is 5 uM (g of spores)-1.
As for `CC(=O)C1CCC2C3CCC4=CC(=O)CCC4(C)C3[C@@H](O)CC12C` (stereo partly specified), the Activity in the assay with Aspergillus ochraceus [5] is 27.2 uM (g of spores)-1; in the assay on Aspergillus ochraceus [2], 14 uM (g of spores)-1.
In the case of `CC(=O)C1CCC2C3CCC4=CC(=O)C=CC4(C)C3CCC12C` (stereo unspecified), the Activity in the assay on Aspergillus ochraceus [1] is listed as 13.8 uM (g of spores)-1; in the assay with Aspergillus ochraceus [2] it was 7.6 uM (g of spores)-1; in the assay on Aspergillus ochraceus [3], 23.6 uM (g of spores)-1; in the assay on Aspergillus ochraceus [4] it was 16.1 uM (g of spores)-1.
On the same counts, the results for `C[C@]12CC[C@H]3[C@@H](CCC4=CC(=O)CC[C@@]43C)[C@@H]1CC[C@@H]2O` [TESTOSTERONE] are 2.6 uM (g of spores)-1, 5.5 uM (g of spores)-1, 3.9 uM (g of spores)-1 and 2.7 uM (g of spores)-1.
